According to patent US5512549A, “Glucagon-like insulinotropic peptide analogs, compositions, and methods of use” (Eli Lilly and Company, priority 1994, dated 1996):

Columns and labels:
[1] = test system: Sprague Dawley or Zucker Diabetic Fatty rats; assay: Rat IV Glucose (1 g/kg) Tolerance Test; type: in vivo; conditions: for Insulin Change AUC: 0-15 min
Experimental: a) Glucose Tolerance Tests
Experiments were conducted in overnight-fasted, conscious, male Sprague Dawley (Charles River) or Zucker Diabetic Fatty (Genetic Models, Inc.) rats weighing approximately 250 (Sprague Dawley rats) or 300 (Zucker Diabetic Fatty rats) grams. Four to five days prior the study, rats were anesthetized with isoflurane, and a polyethylene (PE50) catheter was inserted into the right jugular vein. The catheter was secured with a wound clip, filled with saline containing heparin (2% sodium heparin), and closed with a small stainless steel plug.
After a sixteen-hour fast, twelve chronically cannulated rats were separated into four groups of three rats per group. 0.4 ml of blood was taken from the tail vein, collected into a microtainer tube containing lithium heparin, and immediately placed on ice (zero minute sample). A glucose bolus (1.0 g/kg; 50% glucose (w/v) in water) was administered via the indwelling jugular cannula, and the cannula was rinsed with 200 μl of saline. Twenty seconds later a bolus of test substance 100 μl/100 g body weight of either vehicle (saline containing 0.3% (w/v) bovine serum albumin) or vehicle containing analog! was administered through the jugular cannula, and the cannula was rinsed as before. Rats were bled from the tail again at 2, 5, 10, 20 and 30 minutes after the administration of the glucose bolus, and the samples were treated as described above. At the end of the experiment, blood samples were centrifuged, and the plasma was collected.
Plasma glucose concentrations were determined the day of the experiment using a coupled hexokinase procedure in a clinical chemistry analyzer. Plasma for insulin determinations were diluted with zero calibrator and frozen at -20° C. until time for analysis. Insulin concentrations were determined using a commercial radioimmunoassay kit with rat insulin as the standard.
Insulin change (the change in insulin from the baseline value) was calculated as the difference between the insulin concentration at time t and the insulin concentration at zero time. The area under the insulin change curve was calculated using the trapezoidal rule. Plasma glucose change (the increase in plasma glucose above the baseline value) was calculated as the difference between the plasma glucose concentration at time t and the plasma glucose concentration at zero time. The area under the plasma glucose change curve was calculated using the trapezoidal rule. Values are listed as the mean ± the standard error of the mean (SEM).

beagles = assay: Dog I.V. Hyperglycemic (150 mg/dl) Clamp Test; type: in vivo; conditions: I.V. 1.0 μg/kg
Experimental: a) Hyperglycemic Clamp Studies
Experiments were conducted in overnight-fasted, conscious, adult (1-2 years of age) male and female beagles weighing 8-15 kg. At least ten days prior to the study, animals were anesthetized with isoflurane, and a cut-down was made in the left or right inguinal region. Silastic catheters were inserted into the femoral artery and the proximal caudal femoral vein and secured with 4-0 silk suture. The free ends of the catheters were passed subcutaneously to the back using a trocar needle. The catheters were then filled with a glycerol/heparin solution (3:1, v/v; final heparin concentration of 250 KIU/ml), and the free ends were knotted and placed in a subcutaneous pocket to allow complete closure of the skin. Keflex® was administered both pre-operatively (20 mg/kg, IV and 20 mg/kg, I.M.) and post-operatively (250 mg, p.o. once daily for seven days) to prevent infections. Torbugesic (1.5 mg/kg, I.M.) was administered post-operativelyto control pain.
Blood was drawn just prior to the study day to determine the health of the animal. Only animals with hematocrits above 38% and leukocyte counts below 16,000/mm^3 were used.
The afternoon before the experiment, the free ends of the catheters were exteriorized from the subcutaneous pocket through a small incision made under local anesthesia (2% lidocaine), and the dog was fitted with a tether system jacket and collar assembly.
The morning of the experiment, the contents of the catheters were aspirated, the catheters were flushed with saline, and extension lines (protected by a stainless steel tether) were attached to the catheters. On mornings of IV injection experiments, an over-the-needle, teflon catheter was inserted percutaneously into a cephalic vein in preparation for the administration of an IV bolus of test substance. The dog was placed in a metabolic cage, and the catheter extension lines and tether were attached to a swivel system to allow the dog to move freely about the cage. At this time (-60 minutes), an exogenous infusion of glucose (50% w/v in water) was begun through the chronic venous catheter. Glucose was infused in a descending stepwise fashion over the first six minutes of the study to rapidly raise the plasma glucose concentration to 150 mg/dl. Plasma glucose concentrations were determined every 2.5 to 7.5 minutes throughout the remainder of the study, and the glucose infusion rate was adjusted appropriately to maintain the plasma glucose concentration at 150 mg/dl.
Sixty minutes after the start of the glucose infusion (time 0), test substance was administered either intravenously (1.0, 2.9, 5.0 or 10.0 μg/kg; dose dissolved in 2 ml of saline containing 0.3% dog albumin, w/v) through the previously inserted teflon catheter or subcutaneously (10 μg/kg; 150 μM in phosphate buffered saline) in the dorsal aspect of the neck.
Arterial blood samples (3.5 ml) were taken at -30, -15, 0, 2.5, 5, 7.5, 10, 12.5, 15, 20, 30, 45, 60, 75, 90, 105 and 120 minutes during the IV studies and at -30, -15, 0, 3, 6, 9, 12, 15, 20, 30, 45, 60, 75, 90, 105 and 120 minutes during the SC studies. Samples were collected in vacuum blood collection tubes containing disodium EDTA and immediately placed on ice. To prevent proteolytic cleavage of GLP-1(7-37) in the plasma samples, 1.5 ml of the EDTA containing blood were transferred to a polypropylene tube containing 40 μl of aprotinin (10,000 KIU/ml) and mixed well. The samples were centrifuged, and the resulting plasma was transferred to polypropylene test tubes and stored on ice for the duration of the study.
At the conclusion of the experiment, the animal was anesthetized (isoflurane); the catheters were flushed with fresh saline and filled with the glycerol/heparin mixture; the free ends of the catheters were knotted and placed subcutaneously as described earlier; and antibiotic was administered (300 mg Keflex®, I.M.). […]

Substance: Lys^34 -N^ε -octanoyl-GLP-1(7-37)OH [Lys^34-N^ε-octanoyl-GLP-1(7-37)OH]
- Insulin Change at 10 min ([1]; IV dose 0.6 mg/kg): 1.3 ng/mL
- Max Insulin Change ([1]; IV dose 0.6 mg/kg): 5.0 ng/mL
- Insulin Change AUC ([1]; IV dose 0.6 mg/kg): 33 ± 8 ng·min/mL
- Insulin Change at 10 min ([1]; IV dose 1.2 mg/kg): 10.0 ng/mL
- Max Insulin Change ([1]; IV dose 1.2 mg/kg): 13.1 ng/mL
- Insulin Change AUC ([1]; IV dose 1.2 mg/kg): 136 ± 30 ng·min/mL
- GIR Change AUC (beagles; 0-60 min, mean ± SEM): 463 ± 12 mg/kg
- Insulin Change AUC (beagles; 0-60 min, mean ± SEM): 50 ± 2 ng·min/mL
- Max Insulin Change (beagles; 120 minute test period, mean ± SEM): 3.8 ± 1.0 ng/mL
- Duration of Insulin Effect (beagles; time average insulin change consistently ≥0.5 ng/ml): 15 min

Substance: GLP-1(7-37)OH
- Insulin Change at 10 min ([1]; IV dose 0.6 mg/kg): 5.4 ng/mL
- Max Insulin Change ([1]; IV dose 0.6 mg/kg): 7.8 ng/mL
- Insulin Change AUC ([1]; IV dose 0.6 mg/kg): 79 ± 8 ng·min/mL
- Insulin Change at 10 min ([1]; IV dose 0.92 mg/kg): 3.5 ng/mL
- Max Insulin Change ([1]; IV dose 0.92 mg/kg): 8.4 ng/mL
- Insulin Change AUC ([1]; IV dose 0.92 mg/kg): 75 ± 12 ng·min/mL
- Insulin Change at 10 min ([1]; IV dose 1.2 mg/kg): 4.2 ng/mL
- Max Insulin Change ([1]; IV dose 1.2 mg/kg): 8.4 ng/mL
- Insulin Change AUC ([1]; IV dose 1.2 mg/kg): 77 ± 17 ng·min/mL
